{"source": "ChEMBL document CHEMBL1201862", "about": "“PubChem BioAssay data set” (2004)", "key": {"H4": {"system": "H4", "test": "Luminescence Cell-Based Dose Response HTS to Identify Activators of 5'UTR Stem-Loop Driven Prion Protein mRNA Translation in H4 Neuroglioblastoma Cells. [Related pubchem assays: 1829 (Project Summary), 1814 (Primary HTS)]", "assay_type": "functional", "conditions": "Homo sapiens"}, "[1]": {"test": "Luminescence Cell-Based Dose Response HTS to Identify Activators of Luciferase Translation or Activity in H4 […] Cells. [Related pubchem assays: 1829 (Project Summary), 1814 (Primary HTS)]", "assay_type": "functional"}, "[2]": {"molecular_target": "T1, Short transient receptor potential channel 4 (Mus musculus, UniProt Q9QUQ5)", "T1 sequence (Q9QUQ5 whole entry)": "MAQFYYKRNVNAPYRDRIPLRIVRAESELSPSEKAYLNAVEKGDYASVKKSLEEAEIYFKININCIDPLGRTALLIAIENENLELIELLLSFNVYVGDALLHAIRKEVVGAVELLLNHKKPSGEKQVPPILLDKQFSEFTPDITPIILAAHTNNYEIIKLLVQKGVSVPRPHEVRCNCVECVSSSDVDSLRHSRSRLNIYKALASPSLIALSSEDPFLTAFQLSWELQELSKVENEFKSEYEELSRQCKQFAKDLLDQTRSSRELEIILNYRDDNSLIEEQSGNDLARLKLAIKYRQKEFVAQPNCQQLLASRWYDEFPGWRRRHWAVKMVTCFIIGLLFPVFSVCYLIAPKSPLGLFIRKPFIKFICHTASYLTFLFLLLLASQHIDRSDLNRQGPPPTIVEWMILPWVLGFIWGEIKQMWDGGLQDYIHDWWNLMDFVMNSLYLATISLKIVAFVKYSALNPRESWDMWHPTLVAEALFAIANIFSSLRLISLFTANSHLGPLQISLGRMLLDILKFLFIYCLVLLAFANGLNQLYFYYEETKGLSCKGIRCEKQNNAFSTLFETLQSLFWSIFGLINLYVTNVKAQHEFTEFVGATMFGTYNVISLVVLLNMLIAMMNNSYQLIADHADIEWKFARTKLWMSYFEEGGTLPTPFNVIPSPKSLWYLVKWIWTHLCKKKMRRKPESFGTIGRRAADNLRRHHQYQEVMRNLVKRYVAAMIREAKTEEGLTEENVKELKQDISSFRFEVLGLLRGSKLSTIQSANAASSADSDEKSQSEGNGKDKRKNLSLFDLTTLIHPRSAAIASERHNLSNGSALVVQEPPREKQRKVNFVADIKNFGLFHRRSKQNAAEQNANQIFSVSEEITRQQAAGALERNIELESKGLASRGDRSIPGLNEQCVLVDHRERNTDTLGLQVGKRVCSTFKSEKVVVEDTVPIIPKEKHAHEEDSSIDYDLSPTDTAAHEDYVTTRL", "test": "TRPC4 positive allosteric modulators, dose response, cell-based, HEK293 TRPC4/mu-opioid, Fluo-4 calcium, EC20 DAMGO (AID 434941)", "assay_type": "functional"}, "[3]": {"molecular_target": "NACHT, LRR and PYD domains-containing protein 3 (Homo sapiens, UniProt Q96P20)", "sequence (Q96P20 whole entry, the tested form may be a part)": "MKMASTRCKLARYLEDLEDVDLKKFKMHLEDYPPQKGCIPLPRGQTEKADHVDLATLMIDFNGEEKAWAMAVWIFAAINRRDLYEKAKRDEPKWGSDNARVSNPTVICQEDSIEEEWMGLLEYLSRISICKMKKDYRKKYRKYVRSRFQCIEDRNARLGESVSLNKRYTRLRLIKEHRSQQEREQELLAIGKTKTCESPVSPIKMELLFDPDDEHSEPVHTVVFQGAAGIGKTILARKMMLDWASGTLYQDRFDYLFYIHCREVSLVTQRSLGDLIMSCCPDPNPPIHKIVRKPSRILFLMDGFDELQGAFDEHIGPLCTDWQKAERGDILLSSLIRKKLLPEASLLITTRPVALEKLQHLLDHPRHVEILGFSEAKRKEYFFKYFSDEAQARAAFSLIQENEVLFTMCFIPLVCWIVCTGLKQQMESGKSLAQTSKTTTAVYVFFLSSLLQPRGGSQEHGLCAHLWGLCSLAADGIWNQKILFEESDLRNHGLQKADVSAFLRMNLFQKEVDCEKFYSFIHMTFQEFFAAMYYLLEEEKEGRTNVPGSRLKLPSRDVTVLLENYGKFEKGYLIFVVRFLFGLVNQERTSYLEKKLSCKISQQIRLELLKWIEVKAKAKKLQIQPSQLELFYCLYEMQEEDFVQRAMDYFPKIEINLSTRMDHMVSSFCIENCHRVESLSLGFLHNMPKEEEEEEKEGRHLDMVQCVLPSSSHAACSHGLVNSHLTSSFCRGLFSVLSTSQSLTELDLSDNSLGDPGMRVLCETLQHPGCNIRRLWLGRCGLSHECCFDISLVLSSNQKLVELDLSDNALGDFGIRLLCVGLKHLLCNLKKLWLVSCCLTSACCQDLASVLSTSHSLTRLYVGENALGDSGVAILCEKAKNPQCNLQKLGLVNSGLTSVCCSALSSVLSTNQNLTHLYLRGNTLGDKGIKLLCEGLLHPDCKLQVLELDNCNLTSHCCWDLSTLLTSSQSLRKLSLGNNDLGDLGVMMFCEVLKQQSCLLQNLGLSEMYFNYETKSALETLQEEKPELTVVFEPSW", "test": "NALP3 inhibitors in yeast, dose response, luminescent (AID 488799)", "assay_type": "functional"}, "X-box-binding protein 1": {"molecular_target": "X-box-binding protein 1 (Homo sapiens, UniProt P17861)", "sequence (P17861 whole entry)": "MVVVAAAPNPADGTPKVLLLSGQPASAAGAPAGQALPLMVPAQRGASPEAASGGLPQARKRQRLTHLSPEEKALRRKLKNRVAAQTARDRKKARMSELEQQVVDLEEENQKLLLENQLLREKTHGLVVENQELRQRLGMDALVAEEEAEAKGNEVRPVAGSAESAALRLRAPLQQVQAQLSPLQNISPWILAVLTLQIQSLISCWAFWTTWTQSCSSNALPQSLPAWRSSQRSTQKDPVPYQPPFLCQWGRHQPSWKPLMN", "assay_type": "functional, Cricetulus griseus"}, "[4]": {"test": "inhibitors of SNCA 5'UTR-driven reporter translation, confirmation, H4 neuroglioma cells, luminescence (AID 1988)", "assay_type": "functional, cell-based"}, "[5]": {"test": "inhibitors of firefly luciferase expression or activity, dose response, H4 neuroglioma cells, luminescence (AID 1990)", "assay_type": "functional, cell-based"}, "[6]": {"test": "Luminescence Cell-Based Dose Response HTS to Identify Inhibitors of 5'UTR Stem-Loop Driven Prion Protein mRNA Translation in H4 Neuroglioblastoma Cells. [Related pubchem assays: 1827 (Project Summary), 1813 (Primary HTS)]", "assay_type": "functional"}, "[7]": {"molecular_target": "DNA damage-inducible transcript 3 protein (Mus musculus, UniProt P35639)", "sequence (P35639 whole entry)": "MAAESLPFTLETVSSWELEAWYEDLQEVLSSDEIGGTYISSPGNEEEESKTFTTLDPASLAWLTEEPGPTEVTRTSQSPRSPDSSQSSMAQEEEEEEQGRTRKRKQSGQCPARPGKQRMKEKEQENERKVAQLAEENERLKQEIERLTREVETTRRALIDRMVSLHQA", "assay_type": "functional, Cricetulus griseus"}, "[8]": {"molecular_target": "Alkaline phosphatase, placental type (Homo sapiens, UniProt P05187)", "sequence (P05187 whole entry)": "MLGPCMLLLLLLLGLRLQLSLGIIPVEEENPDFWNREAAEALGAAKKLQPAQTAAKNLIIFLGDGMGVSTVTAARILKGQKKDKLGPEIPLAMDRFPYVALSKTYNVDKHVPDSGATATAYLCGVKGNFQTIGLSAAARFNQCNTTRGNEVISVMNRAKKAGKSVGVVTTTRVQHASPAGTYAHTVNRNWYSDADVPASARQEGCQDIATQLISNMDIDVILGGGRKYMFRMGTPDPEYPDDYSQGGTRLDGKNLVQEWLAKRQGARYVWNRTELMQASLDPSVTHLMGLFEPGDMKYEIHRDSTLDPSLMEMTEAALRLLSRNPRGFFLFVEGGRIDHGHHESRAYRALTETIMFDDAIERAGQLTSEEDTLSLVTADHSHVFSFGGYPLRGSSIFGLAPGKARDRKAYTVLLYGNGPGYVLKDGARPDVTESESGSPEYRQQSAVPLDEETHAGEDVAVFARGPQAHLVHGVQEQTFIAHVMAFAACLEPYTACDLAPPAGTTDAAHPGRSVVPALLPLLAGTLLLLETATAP", "test": "PLAP enzyme inhibitors, confirmation, biochemical, luminescence (AID 1512)", "assay_type": "functional"}, "[9]": {"molecular_target": "T2, Alkaline phosphatase, tissue-nonspecific isozyme (Homo sapiens, UniProt P05186)", "T2 sequence (P05186 whole entry)": "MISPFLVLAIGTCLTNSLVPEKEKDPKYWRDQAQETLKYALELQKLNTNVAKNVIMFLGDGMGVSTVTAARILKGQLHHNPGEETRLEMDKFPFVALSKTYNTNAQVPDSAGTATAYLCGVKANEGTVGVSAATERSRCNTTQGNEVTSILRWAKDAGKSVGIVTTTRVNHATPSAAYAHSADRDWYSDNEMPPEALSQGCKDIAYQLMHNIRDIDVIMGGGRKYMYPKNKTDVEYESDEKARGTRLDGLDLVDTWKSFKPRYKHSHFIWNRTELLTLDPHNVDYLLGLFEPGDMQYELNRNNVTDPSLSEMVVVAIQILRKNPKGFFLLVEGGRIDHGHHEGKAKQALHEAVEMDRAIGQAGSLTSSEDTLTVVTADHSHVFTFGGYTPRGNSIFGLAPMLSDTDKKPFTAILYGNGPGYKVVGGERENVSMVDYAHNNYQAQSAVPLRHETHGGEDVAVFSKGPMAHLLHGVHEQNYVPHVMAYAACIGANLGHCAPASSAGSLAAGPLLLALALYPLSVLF", "test": "human TNAP enzyme inhibitors, SAR follow-up, biochemical, luminescent, dose response (AID 1056)"}, "T-cell": {"system": "T-cell", "test": "inhibitors of CD8+ T cell–vesicle binding, dose response, mouse 2C CD8+ T cells, flow cytometry (AID 485284)", "assay_type": "functional"}, "Integrin alpha-L": {"molecular_target": "Integrin alpha-L (Mus musculus, UniProt P24063)", "sequence (P24063 whole entry)": "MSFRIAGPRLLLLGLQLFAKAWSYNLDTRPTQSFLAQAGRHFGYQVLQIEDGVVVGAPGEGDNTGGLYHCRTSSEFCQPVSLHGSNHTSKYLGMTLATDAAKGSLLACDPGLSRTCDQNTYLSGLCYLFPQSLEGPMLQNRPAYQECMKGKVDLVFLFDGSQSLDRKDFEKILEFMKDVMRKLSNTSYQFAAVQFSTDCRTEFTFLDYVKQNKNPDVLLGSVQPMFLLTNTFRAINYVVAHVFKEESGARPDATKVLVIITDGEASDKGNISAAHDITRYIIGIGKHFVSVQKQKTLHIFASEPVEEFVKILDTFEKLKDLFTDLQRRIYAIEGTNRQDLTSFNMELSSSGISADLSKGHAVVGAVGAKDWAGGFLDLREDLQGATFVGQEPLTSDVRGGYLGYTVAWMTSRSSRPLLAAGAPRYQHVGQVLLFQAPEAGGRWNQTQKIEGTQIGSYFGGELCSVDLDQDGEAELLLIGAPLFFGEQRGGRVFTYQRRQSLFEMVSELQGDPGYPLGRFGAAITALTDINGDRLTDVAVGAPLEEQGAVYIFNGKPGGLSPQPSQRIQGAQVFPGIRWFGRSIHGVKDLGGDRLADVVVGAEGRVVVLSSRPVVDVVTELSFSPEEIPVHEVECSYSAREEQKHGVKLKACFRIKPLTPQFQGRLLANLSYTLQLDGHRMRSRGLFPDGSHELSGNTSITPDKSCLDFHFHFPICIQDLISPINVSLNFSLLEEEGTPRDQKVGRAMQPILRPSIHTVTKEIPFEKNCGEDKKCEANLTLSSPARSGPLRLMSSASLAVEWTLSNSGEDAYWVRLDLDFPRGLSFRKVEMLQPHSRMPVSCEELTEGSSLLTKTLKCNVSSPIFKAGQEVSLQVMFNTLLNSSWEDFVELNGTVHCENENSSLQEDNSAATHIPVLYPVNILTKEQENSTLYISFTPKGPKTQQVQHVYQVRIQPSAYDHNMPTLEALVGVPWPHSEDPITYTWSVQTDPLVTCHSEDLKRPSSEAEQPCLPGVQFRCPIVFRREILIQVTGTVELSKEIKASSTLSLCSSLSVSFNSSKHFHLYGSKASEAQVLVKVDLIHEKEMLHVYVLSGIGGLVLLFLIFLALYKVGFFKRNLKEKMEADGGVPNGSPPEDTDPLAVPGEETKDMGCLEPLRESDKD", "test": "modulators of CD8 T cell-vesicle binding, dose response, powder samples, mouse 2C CD8+ cells (AID 504565)", "assay_type": "functional"}, "[10]": {"molecular_target": "Mitogen-activated protein kinase 10 (Homo sapiens, UniProt P53779)", "sequence (P53779 whole entry)": "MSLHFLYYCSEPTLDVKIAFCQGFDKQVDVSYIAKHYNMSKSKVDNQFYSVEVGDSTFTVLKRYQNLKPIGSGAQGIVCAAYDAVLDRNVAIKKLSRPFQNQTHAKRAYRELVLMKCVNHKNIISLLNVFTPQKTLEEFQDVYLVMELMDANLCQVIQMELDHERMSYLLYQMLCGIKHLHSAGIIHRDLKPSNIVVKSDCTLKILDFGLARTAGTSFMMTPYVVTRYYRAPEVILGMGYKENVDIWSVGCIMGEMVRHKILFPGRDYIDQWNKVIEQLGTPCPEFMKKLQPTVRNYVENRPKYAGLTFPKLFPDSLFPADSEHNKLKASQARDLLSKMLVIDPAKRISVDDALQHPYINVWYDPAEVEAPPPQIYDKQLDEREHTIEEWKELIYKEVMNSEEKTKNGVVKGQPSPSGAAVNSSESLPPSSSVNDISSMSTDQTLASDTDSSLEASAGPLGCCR", "test": "Dose response biochemical screening assay for inhibitors of c-Jun N-Terminal Kinase 3 (JNK3). [Related pubchem assays: 746 ]"}, "[11]": {"test": "growth suppression of beta-catenin-knockout colon cells, dose response, cell-based, HCT116, human colon tumor (AID 1045);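 also: HCT116 colon tumor cells with beta catenin knocked out; cells exposed to compound for 60 hours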", "assay_type": "functional"}, "[12]": {"molecular_target": "G-protein coupled receptor 55 (Homo sapiens, UniProt Q9Y2T6)", "sequence (Q9Y2T6 whole entry)": "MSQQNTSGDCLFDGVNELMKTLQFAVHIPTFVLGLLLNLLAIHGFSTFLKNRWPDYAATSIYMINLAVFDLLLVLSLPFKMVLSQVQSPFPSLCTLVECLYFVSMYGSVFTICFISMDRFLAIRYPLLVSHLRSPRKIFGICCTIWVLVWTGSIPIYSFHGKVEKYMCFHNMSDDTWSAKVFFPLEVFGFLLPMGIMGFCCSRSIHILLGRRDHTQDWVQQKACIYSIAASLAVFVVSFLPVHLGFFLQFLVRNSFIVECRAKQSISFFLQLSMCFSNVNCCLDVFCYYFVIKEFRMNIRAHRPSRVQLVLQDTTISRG", "test": "GPR55 agonists via beta-arrestin recruitment, primary screen, imaging, U2OS cells, beta-arrestin-GFP redistribution (AID 1961)", "assay_type": "functional"}, "Estrogen receptor": {"molecular_target": "T3, Estrogen receptor (Homo sapiens, UniProt P03372)", "T3 sequence (P03372 whole entry)": "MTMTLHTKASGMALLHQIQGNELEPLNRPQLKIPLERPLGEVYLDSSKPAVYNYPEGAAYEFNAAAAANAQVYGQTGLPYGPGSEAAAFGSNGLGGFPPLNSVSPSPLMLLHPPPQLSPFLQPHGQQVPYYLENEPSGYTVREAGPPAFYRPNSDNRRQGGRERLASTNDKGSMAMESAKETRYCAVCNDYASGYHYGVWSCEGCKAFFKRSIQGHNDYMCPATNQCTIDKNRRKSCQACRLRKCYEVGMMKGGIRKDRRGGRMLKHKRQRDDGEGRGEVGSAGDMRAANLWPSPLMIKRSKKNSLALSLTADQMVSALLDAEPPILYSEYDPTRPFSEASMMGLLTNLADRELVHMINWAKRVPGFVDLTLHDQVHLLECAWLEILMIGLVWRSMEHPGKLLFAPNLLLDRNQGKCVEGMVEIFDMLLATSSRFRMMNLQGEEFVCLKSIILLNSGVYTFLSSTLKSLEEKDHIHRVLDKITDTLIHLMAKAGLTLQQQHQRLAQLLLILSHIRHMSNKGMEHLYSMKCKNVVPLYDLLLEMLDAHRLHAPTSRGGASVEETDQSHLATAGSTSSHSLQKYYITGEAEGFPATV"}, "[13]": {"test": "growth suppression of PTEN-null colon cells, dose response, cell-based, HCT116 PTEN knockout (AID 1047);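 also: HCT116 colon tumor cells with PTEN knocked out; cells exposed to compound for 60 hours before readout; potency for loss of cell viability measured by luminescence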", "assay_type": "functional"}}, "note": "Active and inactive are the calls of the source.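 For Absolute IC50 (XBP1) in this document: confirmatory dose-response counter-screen serving a CHOP assay.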", "data": [{"compound": "O=C(Nc1cccc(Cl)c1)c1cnn2cccnc12", "values": [{"measurement": "EC50", "setting": "H4", "result": "19.1 µM (active)"}, {"measurement": "EC50", "setting": "[1]", "result": "3 µM (active)"}, {"measurement": "EC50", "setting": "[2]", "result": "1.68 µM (active)"}, {"measurement": "IC50", "setting": "[3]", "result": "8.19 µM (active)"}]}, {"compound": "CC(C)CCn1c(SCc2ccc(Cl)cc2)nc2c1c(=O)[nH]c(=O)n2C", "values": [{"measurement": "Absolute IC50 (XBP1)", "setting": "X-box-binding protein 1", "result": 10, "unit": "µM"}, {"measurement": "EC50", "setting": "[4]", "result": "11.6 µM (active)"}, {"measurement": "EC50", "setting": "[5]", "result": "14.3 µM (active)"}, {"measurement": "EC50", "setting": "[6]", "result": "13.3 µM (active)"}, {"measurement": "Absolute IC50 (CHOP)", "setting": "[7]", "result": "< 10", "unit": "µM"}]}, {"compound": "O=C(Cn1ccnc1)c1ccc(O)c(O)c1", "values": [{"measurement": "IC50", "setting": "[8]", "result": "5.37 µM (active)"}, {"measurement": "IC50", "setting": "[9]", "result": "> 100 µM (inactive)"}]}, {"compound": "CCOc1ccc(-c2nc(N)ncc2-c2ccccc2)c(O)c1", "values": [{"measurement": "EC50", "setting": "T-cell", "result": "25.8 µM (inactive)"}, {"measurement": "EC50", "setting": "Integrin alpha-L", "result": "0.173 µM (active)"}, {"measurement": "IC50", "setting": "[10]", "result": "12.7 µM (not active)"}]}, {"compound": "CCc1nnc2n1N=C(c1ccc(-c3cc(Cl)ccc3Cl)o1)CS2", "values": [{"measurement": "EC50", "setting": "[11]", "result": "95.9 µM (active)"}, {"measurement": "EC50", "setting": "[12]", "result": "0.734 µM (active)"}, {"measurement": "IC50", "setting": "Estrogen receptor", "result": "44 µM (not active)"}, {"measurement": "EC50", "setting": "[13]", "result": "27.1 µM (active)"}]}]}
